Earlier results as cited in patent US6503482B1, “Non-chlorofluorocarbon aerosol formulations” (Schering Corporation, priority 1993, dated 2003).
Read-outs that look alike come from different tables or passages of the source.

Details: absolute pressure

vapor pressure (same value in psia): 84.7 psia
vapor pressure (stated too high for use in metered dose inhalators): 5.84×10^5 newton/meter^2 absolute
SMILES: FCC(F)(F)F [HFC 134a, 1,1,1,2 tetrafluoroethane]
